PubChem BioAssay (NCI)
“And” between values parts separate entries of the source, which are not always exact repeats. Identical values can stand only once.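 Exposure lasted 48 hours, with cells grown in 96-well plates and compounds tested at five concentrations. At the GI50, growth is halved. TGI: concentration producing complete growth inhibition.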

Legend:
Assay in all cases: NCI tumour cell line growth inhibition, 48 h
KM20L2 colon = test system: KM20L2 colon
DMS 114 small cell lung = test system: DMS 114 small cell lung
HS 578T breast = test system: HS 578T breast
MDA-MB-435 = test system: MDA-MB-435
RXF-631 renal = test system: RXF-631 renal
MDA-N = test system: MDA-N

| Structure (SMILES) | TGI (KM20L2 colon) | TGI (DMS 114 small cell lung) | GI50 (HS 578T breast) | TGI (HS 578T breast) | GI50 (MDA-MB-435) | TGI (MDA-MB-435) | also measured |
| --- | --- | --- | --- | --- | --- | --- | --- |
| CC1=C2C(=CC(C)(C)C2O)C(=O)C(C)(O)C12CC2 (configuration not stated) | 0.0522 µM | 0.0281 µM | – | – | – | – | – |
| CN(C)c1ccc2nc3ccc(=[N+](C)C)cc-3sc2c1 | – | – | 3.08 µM and 3.62 µM | > 28.2 µM and 35.6 µM | 0.976 µM and 1.46 µM | 3.26 µM and 4.02 µM | – |
| O=CN/C=C/c1ccc(O)c(O)c1 | > 100 µM | > 100 µM | – | – | – | – | TGI (RXF-631 renal): > 100 µM |
| CCOC(=O)NC(=O)c1cn(CCCCCCOC(=O)NCCCCCCNC(=O)OCCCCCCn2cc(C(=O)NC(=O)OCC)c(=O)[nH]c2=O)c(=O)[nH]c1=O | > 100 µM | > 100 µM | – | – | – | – | TGI (RXF-631 renal): > 100 µM |
| O=C1c2c(O)cccc2C(C2OC(CO)C(O)C(O)C2O)c2cc(CO)cc(O)c21 (configuration not stated) | – | – | – | > 100 µM | – | > 100 µM | TGI (MDA-N): > 100 µM |
| COC(=O)c1cc2ccc(OC(C)=O)c(OC(C)=O)c2cn1 | – | – | – | – | – | 3.16 µM and 3.26 µM | GI50 (MDA-N): 2.03 µM; TGI (MDA-N): 2.93 µM and 3.68 µM |
| O=c1nc2oc3ccc4ccccc4c3cc-2s1 | – | – | 0.528 µM | > 61.8 µM | 0.259 µM | 0.783 µM | – |
| C=C1C(=O)OC2C1C(OC(=O)/C(C)=C/C)CC(O)(CCl)C1C(O)C3OC3(C)C21O (configuration not stated) | – | – | – | > 50 µM | – | > 50 µM | TGI (MDA-N): > 50 µM |
| N#CC(c1nc2ccccc2nc1Cl)S(=O)(=O)c1ccccc1 (configuration not stated) | > 100 µM | > 100 µM | – | – | – | – | – |
| C=C(CO[Si](C)(C)C(C)(C)C)C(C)=O | – | – | – | > 84.4 µM | – | 36.3 µM | TGI (MDA-N): 32.3 µM |
| O=C(Nc1ccc(Cl)cc1)Nc1ccc(Nc2nncc3ccccc23)cc1 | – | – | 3.83 µM | 27.7 µM | 2.14 µM | 9.42 µM | – |
| COc1c(Cl)cc(NC(=S)C#N)cc1Cl | 54.4 µM | 36.3 µM | – | – | – | 92.8 µM | TGI (RXF-631 renal): 51.3 µM; TGI (MDA-N): 69.1 µM |
| CN(C)c1ccc2c(c1)OC(N)=C(C#N)C2c1ccc2c(c1)CCO2 (configuration not stated) | – | – | 0.235 µM | > 100 µM | < 0.0156 µM | 0.095 µM | – |
| C/C=C(/COC(C)=O)C(=O)OC1C=C(C=O)C(C)(C)C=C1C (configuration not stated) | – | – | – | > 100 µM | – | > 100 µM | TGI (MDA-N): > 100 µM |
| Cc1ccc(N2C(=O)C3C=CC(n4[nH]c(=O)n(Cc5ccccc5)c4=O)CC3C2=O)cc1 (configuration not stated) | > 100 µM | > 100 µM | – | – | – | – | – |
| COC(=O)c1cc(Cl)ccc1NC(=O)c1ccc([N+](=O)[O-])cc1 | 76.8 µM | > 100 µM | – | – | – | – | TGI (RXF-631 renal): 36.5 µM |
| COc1ccc(/C=C2\CCCC3=C2NC(N)=NC3c2ccc(OC)c(OC)c2)cc1OC (configuration not stated) | – | – | 21.5 µM | > 100 µM | 1.43 µM | > 100 µM | – |
| NC(=S)N/N=C/c1ncccc1N | – | – | 37.5 µM | > 100 µM | 5.17 µM | > 100 µM | TGI (MDA-N): > 10 µM |
| COC(=O)CCC(NC(=S)N/N=C/c1ccco1)C(=O)OC (configuration not stated) | > 100 µM | > 100 µM | – | – | – | – | TGI (RXF-631 renal): > 100 µM |
| CC[C@H](CO)Nc1nc(NCc2ccccc2)n2ncc(C(C)C)c2n1 | – | – | 1.59 µM | 6.16 µM | 2.06 µM | 10.1 µM | – |

| Structure (SMILES) | TGI (KM20L2 colon) | TGI (DMS 114 small cell lung) | GI50 (HS 578T breast) | TGI (HS 578T breast) | GI50 (MDA-MB-435) | TGI (MDA-MB-435) | also measured |
| --- | --- | --- | --- | --- | --- | --- | --- |
| CCCCN(CCCC)c1ccc(C(=N)c2ccc(N(CCCC)CCCC)cc2)cc1 | – | – | 0.539 µM | 1.58 µM | 0.642 µM | 2.21 µM | – |
| CCN(CC)Cc1ccc(Nc2nccc(-c3cnn4ncccc34)n2)cc1 | – | – | 0.0164 µM | 0.117 µM | 0.0232 µM | 0.0945 µM | – |
| NC(=O)c1c(NC(=O)c2ccc3c(c2)OCO3)sc2c1CCC(=O)C2 | – | – | – | – | 3.16 µM | > 100 µM | – |
| CC(C)c1cccc2sc(NC(=O)C(=O)C(C#N)c3cccc4ccccc34)nc12 (configuration not stated) | > 100 µM | > 100 µM | – | – | – | – | TGI (RXF-631 renal): > 100 µM |
| O=C(Nc1cccc(NC(=O)Nc2cc(C(F)(F)F)ccc2Cl)c1)Nc1cc(C(F)(F)F)ccc1Cl | – | – | 2.64 µM | 8.81 µM | 5.56 µM | > 100 µM | – |
| CCCOC(=O)N1CCN(/[N+]([O-])=N/Oc2ccc([N+](=O)[O-])cc2[N+](=O)[O-])CC1 | – | – | 4.95 µM | 50.9 µM | 0.366 µM | 12.2 µM | – |
| C/C(CC(=O)Nc1ccc(Cl)cc1)=N\NC(N)=S | > 100 µM | > 100 µM | – | – | – | – | TGI (RXF-631 renal): > 100 µM |
| O=C(COc1ccc(/C=C2\Oc3ccccc3C2=O)cc1)Nc1nc2c(s1)CCCC2 | – | – | – | 7.78 µM | 3.98 µM | > 100 µM | – |
| COC(=O)C1=CC2C(=O)OC1CC2C#N (configuration not stated) | > 100 µM | > 100 µM | – | – | – | – | – |
| CC1(C)[C@@H](OC(N)=O)[C@H]2O[C@H]2[C@]2(CO)[C@H]3CC[C@]4(C)[C@@H](c5ccc(=O)oc5)[C@@H](Cl)C[C@]4(O)C3=CC[C@@H]12 | – | – | 0.00524 µM | 0.0207 µM | 0.0101 µM | 0.0386 µM | – |
| COc1cc(C(=O)NC2CCN(C)CC2)c(F)cc1Nc1ncc2c(n1)N(C1CCCC1)CC(F)(F)C(=O)N2C | – | – | < 0.0342 µM | 10.4 µM | – | – | – |
| COc1ccc(/C=C2\S/C(=N/Nc3nc(-c4ccccc4)cs3)NC2=O)cc1OC | – | – | – | 83.3 µM | – | 75 µM | TGI (MDA-N): 33.7 µM |
| O=C(Nc1ccc(Cl)c(Cl)c1)O/N=C\c1c(Cl)ccc([N+](=O)[O-])c1Cl | – | – | 3.35 µM | 38.7 µM | 1.9 µM | 4.43 µM | – |
| COc1ccc2c(c1)C(=O)c1c-2c(N(C)C)nc2ccccc12 | – | – | > 100 µM | > 100 µM | – | – | – |
| CC1=C(CO)C(=O)O[C@@H]([C@@H](C)[C@H]2CC[C@H]3[C@@H]4C[C@@H](O)[C@@]5(O)CC=CC(=O)[C@]5(C)[C@H]4CC[C@]23C)C1 | – | – | – | > 100 µM | – | > 100 µM | TGI (MDA-N): > 100 µM |
| O=C(/C=C/c1ccc([N+](=O)[O-])cc1)c1ccc2c3c(cccc13)CC2 | – | – | – | > 30.8 µM | 15.8 µM | > 63.4 µM | – |
| COc1ccc(C(=O)c2cc3c(N)c(C(=O)Nc4cccc5ccccc45)sc3nc2C)cc1 | – | – | 0.198 µM | > 50 µM | – | – | – |
| COc1ccc(C2=NN(c3ccccc3)C[N+](c3ccc(OC)cc3)=N2)cc1 | > 100 µM | 64 µM | – | – | – | – | – |
| CC(=O)C1C(=O)C(=O)N(c2ccccc2C(C)C)C1=O (configuration not stated) | > 100 µM | – | – | – | – | – | – |
